Experiment [1] deals with T1, aromatase (Rattus norvegicus, UniProt P22443).
T1 construct: ovarian microsomes are obtained from rats treated with pregnant mares serum gonadotropin; from tissue; host or cells: ovarian microsomes from rats treated with pregnant mares serum gonadotropin
T1 sequence (P22443 1-508): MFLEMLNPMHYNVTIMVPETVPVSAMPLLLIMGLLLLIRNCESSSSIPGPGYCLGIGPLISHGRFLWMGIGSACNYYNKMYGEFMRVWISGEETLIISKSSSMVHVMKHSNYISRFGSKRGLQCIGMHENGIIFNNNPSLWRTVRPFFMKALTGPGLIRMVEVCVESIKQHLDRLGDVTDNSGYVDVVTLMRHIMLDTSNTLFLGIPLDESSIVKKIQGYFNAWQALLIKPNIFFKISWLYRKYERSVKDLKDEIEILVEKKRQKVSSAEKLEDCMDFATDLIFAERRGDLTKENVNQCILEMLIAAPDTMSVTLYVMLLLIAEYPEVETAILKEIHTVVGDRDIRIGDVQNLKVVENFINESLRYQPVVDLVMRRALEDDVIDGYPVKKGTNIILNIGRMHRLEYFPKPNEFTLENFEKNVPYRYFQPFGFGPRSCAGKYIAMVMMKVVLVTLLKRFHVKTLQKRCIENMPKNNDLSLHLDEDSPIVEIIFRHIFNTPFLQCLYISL
The experiment in a line: Aromatase inhibition in the rat ovarian microsome assay. In kind it is biochemical. As to conditions: rat ovarian microsomes; substrate (androstenedione) concentration 0.1 μM.
Experimental: In this test system, ovarian microsomes are obtained from rats treated with pregnant mares serum gonadotropin. Test compounds are added to reaction vials containing 0.1 μM 4-androstene-3,17-dione, 100,000 dpm 1,2[^3 H]-androstenedione, the microsomes and a NADPH generating system. The concentrations of the inhibitors tested ranged between 0.005 and 10 μM.

For experiment [2], the system named is DMBA-induced mammary tumors. Put plainly: DMBA-Induced Mammary Tumor Inhibition. It is filed as in vivo, female Sprague-Dawley rats. The note with it: 4 mg/kg daily subcutaneously, Test No. I. The procedure: Mammary tumors were produced in female Sprague-Dawley rats which were 50-60 days old by the gavage administration of 20 mg of 7,12-dimethylbenz[a]anthracene (DMBA). About six weeks after DMBA administration, the mammary glands were palpated at weekly intervals for the appearance of tumors. Whenever one or more tumors appeared and were measurable in an animal, that animal was selected for experimentation. […] Each control and test group contained 8 animals. The test compound was dissolved in corn oil and administered subcutaneously once daily. Every experiment included a group of control rats having tumors and were given corn oil vehicle subcutaneously. […] The area of each tumor was calculated by multiplying the shortest and longest diameters of the tumor. The treatment and measurement of animals continued for 3 weeks at which time the final areas of the tumors were determined. The change in the mean tumor area was determined, and the mean change was analyzed for its significance using Dunnett's t-test.

Structures are written as SMILES.

The term EC50 denotes the concentration giving half of the maximal effect. A high value points to lower potency in that assay. As for `O=[N+]([O-])c1ccc(CCn2ccnc2)cc1` [1-[2-(4-nitrophenyl)ethyl]-1H-imidazole], the EC50 in experiment [1] is less than 50 nM.

Regarding `C=CCOC(Cn1ccnc1)c1ccc(Cl)cc1Cl` (centres unmarked) [1-[2-(2,4-dichlorophenyl)-2-(2-propenyloxy)ethyl]-1H-imidazole], the “Mean Tumor Area, Finish” value in experiment [2] (after 3 weeks, statistically different from control, p < 0.05 (control 392.0)) amounted to 119.0 mm^2. For the same compound, the “Mean Tumor Area, Start” value in experiment [2] (start of test) is reported as 55.2 mm^2. This compound also registered an EC50 in experiment [1] of 42 nM.

`Clc1ccc(C(Cn2ccnc2)OCc2ccsc2Cl)c(Cl)c1` (centres unmarked) [1-(2-[(2-chloro-3-thienyl)-methoxy]-2-[2,4-dichlorophenyl]-ethyl)-1H-imidazole] yielded an EC50 in experiment [1] of 60 nM.

`COc1ccc(OC)c(C(O)Cn2ccnc2)c1` (stereo not drawn) [α-(2,5-dimethoxyphenyl)-1H-imidazole-1-ethanol nitrate] came in with an EC50 in experiment [1] of 1500 nM.

In experiment [1], `c1ccc(CCCn2ccnc2)cc1` [1-(3-phenylpropyl)imidazole] registered a 50% effective concentration (EC50) of 490 nM.

`c1ccc(CCn2ccnc2)cc1` [1-(β-phenylethyl)imidazole] returned an EC50 in experiment [1] of 630 nM.

The values are drawn from patent publication US4766140A, “Method of inhibiting aromatase” (Eli Lilly and Company, priority 1984, dated 1988).
